Activity calls are given as the source filed them. The calls are words filed in the database; no cut-off is given here.
System: CCF-STTG1
Assay: Inhibition of apolipoprotein E production in human CCF-STTG1 cells at 10 uM after 24 hrs by ELISA relative to vehicle-treated control
Type: functional
Conditions: for inhibition at 10 µM: CCF-STTG1, 24 h

| SMILES | inhibition | inhibition at 10 µM [%] |
| --- | --- | --- |
| COc1ccc(C(c2ccccc2)(c2ccccc2)N2CCCC2)cc1 | Active | – |
| COc1ccc(C(Nc2ccccc2)(c2ccccc2)c2ccccc2)cc1 | Active | – |
| COc1ccc(C(c2ccccc2)(c2ccccc2)N2CCCCC2)cc1 | Active | – |
| COc1ccc(C(NC2CCCCC2)(c2ccccc2)c2ccccc2)cc1 | Active | – |
| CCN(CC)C(c1ccccc1)(c1ccccc1)c1ccc(OC)cc1 | Active | – |
| c1ccc(NC(c2ccccc2)(c2ccccc2)c2ccccc2)cc1 | Active | – |
| c1ccc(CNC(c2ccccc2)(c2ccccc2)c2ccccc2)cc1 | Active | – |
| c1ccc(C(c2ccccc2)(c2ccc3ccccc3c2)N2CCOCC2)cc1 | – | 49 |
| CC(C)CNC(c1ccccc1)(c1ccccc1)c1ccc2ccccc2c1 | – | 50 |
| c1ccc(C(c2ccccc2)(c2ccccc2)N2CCCCC2)cc1 | Active | – |
| c1ccc(C(NC2CCCCC2)(c2ccccc2)c2ccccc2)cc1 | Active | – |
| CCC(C)NC(c1ccccc1)(c1ccccc1)c1ccccc1 (stereo unspecified) | Active | – |
| CC(C)CNC(c1ccccc1)(c1ccccc1)c1ccccc1 | Active | – |
| c1ccc(CN(Cc2ccccc2)C(c2ccccc2)(c2ccccc2)c2ccccc2)cc1 | Active | – |
| c1ccc(C(c2ccccc2)(c2ccccc2)N2CCNCC2)cc1 | Active | – |
| O=C(c1ccccc1)c1ccc(OCc2ccccc2)cc1 | Active | – |
| CCCCN(CCCC)C(c1ccccc1)(c1ccccc1)c1ccccc1 | Active | – |
| O=C(c1ccccc1)c1ccc(O)cc1 | Active | – |
| c1ccc(C(c2ccccc2)(c2ccc3ccccc3c2)N2CCCCC2)cc1 | Active | – |
| CN(C)C(c1ccccc1)(c1ccccc1)c1ccccc1 | Active | – |
| CN(C)C(c1ccccc1)(c1ccccc1)c1ccc2ccccc2c1 | Active | – |

| SMILES | inhibition | inhibition at 10 µM [%] |
| --- | --- | --- |
| CCCCN(CCCC)C(c1ccccc1)(c1ccccc1)c1ccc2ccccc2c1 | Active | – |
| c1ccc(C(c2ccccc2)(c2ccc3ccccc3c2)N2CCCC2)cc1 | – | 46 |
| CC(NC(c1ccccc1)(c1ccccc1)c1ccccc1)c1ccccc1 (racemic) | Active | – |
| CCCCN(CCCC)C(c1ccccc1)(c1ccccc1)c1ccc(OC)cc1 | Active | – |
| c1ccc(C(c2ccccc2)(c2ccccc2)N2CCCC2)cc1 | Active | – |
| c1ccc(C(c2ccccc2)(c2ccccc2)N2CCOCC2)cc1 | Active | – |
| COc1ccc(C(c2ccccc2)(c2ccccc2)N(C)C)cc1 | Active | – |
| COc1ccc(C(NCc2ccccc2)(c2ccccc2)c2ccccc2)cc1 | Active | – |
| O=C(c1ccccc1)c1ccccc1 | Active | – |
| CCN(CC)C(c1ccccc1)(c1ccccc1)c1ccccc1 | Active | – |
| CCC(C)NC(c1ccccc1)(c1ccccc1)c1ccc2ccccc2c1 (stereo unspecified) | – | 66 |
| O=C(c1ccccc1)C(O)c1ccccc1 (stereo unspecified) | Active | – |
| COc1ccc(C(NCC(C)C)(c2ccccc2)c2ccccc2)cc1 | Active | – |
| COc1ccc(C(c2ccccc2)(c2ccccc2)N2CCNCC2)cc1 | Active | – |
| CCN(CC)C(c1ccccc1)(c1ccccc1)c1ccc2ccccc2c1 | Active | – |
| c1ccc(C(NCC2CCCCC2)(c2ccccc2)c2ccccc2)cc1 | – | 51 |
| c1ccc(C(NC2CCCCC2)(c2ccccc2)c2ccc3ccccc3c2)cc1 | Active | – |
| COc1ccc(C(c2ccccc2)(c2ccccc2)N2CCOCC2)cc1 | Active | – |
| CCC(C)NC(c1ccccc1)(c1ccccc1)c1ccc(OC)cc1 (stereo unspecified) | Active | – |
| CC(NC(c1ccccc1)(c1ccccc1)c1ccc2ccccc2c1)c1ccccc1 (racemic) | Active | – |
